Read-outs that look alike come from different tables or passages of the source. Residues, ends and D or L forms follow the SMILES beside them. No end group written: not given here.
How the values were obtained:
[1] = target: HLA-DQ8 (Homo sapiens, UniProt P01909+P01920, A209T/A45G/C70Q/D89A/DUP78-78/E183D/E77G/F237L/G63E/H199R/I129T/K197E/L178F/L74F/L98V/Q57E/Q76R/S185I/S97I/T217I/T49S/V73L/Y58L); assay: MHC II/peptide competition binding assay, HLA-DQ8
Procedure: (§1) One skilled in the art would appreciate that the 15-mers used included shorter de-epitoped high molecular weight glutenin peptide sequences (mutated repeating antigenic units), as described throughout. For example, Table 2 provides a listing of 15-mers and the shorter mutated repeating antigenic units present therein. […] MHC II molecules were purified by affinity chromatography, and peptides were radiolabeled using the chloramine T method. After an incubation period, the bound and unbound radiolabeled species were separated, and their relative amounts were determined by either size-exclusion gel-filtration chromatography or monoclonal antibody capture of MHC. The percent of bound radioactivity was then determined.

[2] = target: HLA-DQ2.5 (Homo sapiens, UniProt P01909+P01920, A45G/A70V/D89A/E106A/E77G/E98D/H199R/L107V/N214S/P84L/P87L/T103K/T109R/T172A/T60S/V78E/V99I/Y58L/Y62S/Y69I/Y79F); assay: MHC II/peptide competition binding assay, HLA-DQ2.5
Procedure: as §1

[3] = system: Gluten-reactive T-cell lines (TCLs) from celiac disease patients' biopsies; assay: T-cell activation assay (IFN-γ ELISA); type: cell-based, human; details: peptides 10 μM, 48 h; positive if IFNγ ≥2-fold vs control and significantly higher (one-sided t-test)
Procedure: 200 mg of protein were first incubated in 5% formic acid with 4 mg pepsin for 4 hours in 37° C. Then the sample was evaporated using speedVac. On the following day, the protein was incubated with 4 mg chymotrypsin in 20 mM ammonium-bicarbonate for 4 hours in 37° C., followed by speedVac evaporation. The concentration of the digest was then measured, and the digest was deamidated using transglutaminase, 2 U per 7 mg digest for 6 hours in 37° C. The samples were then cleaned using a C18 column, dried and resuspended in media at a concentration of 2 mg/ml. […]
TCLs from celiac disease patients' biopsies were assayed for responses to deamidated PCT-HMW proteins and HMW peptides by the detection of IFN-7 by enzyme-linked immunosorbent assay (ELISA), as previously described (Gianfrani, Carmen, et al. “Gliadin-specific type 1 regulatory T cells from the intestinal mucosa of treated celiac patients inhibit pathogenic T cells.” The journal of immunology 177.6 (2006): 4178-4186.). […] The reaction was stopped, and the plate was read on the ELISA plate reader at […]. The results were analyzed using Graphpad Prism and IFNγ levels were determined. […]

[4] = target: HLA-DQ2.2 (Homo sapiens, UniProt P01909+P01920, A45G/A70V/C70K/D167G/D89A/E106A/E183D/E77G/E98D/F237L/F77L/G63E/H199R/I129T/K197E/L107V/L178F/L74F/N214S/P84L/P87L/Q57E/Q76R/R75H/S185I/S97I/T103K/T109R/T172A/T60S/V73L/V78E/V99I/Y48F/Y58L/Y62S/Y69I/Y79F); assay: MHC II/peptide competition binding assay, HLA-DQ2.2
Procedure: as §1

[5] = target: HLA-DQ7.5 (Homo sapiens, UniProt P01909+P01920); assay: MHC II/peptide competition binding assay, HLA-DQ7.5
Procedure: The peptides were synthesized as purified material on the 2 mg scale with free acid C-termini (A&A labs, USA). One skilled in the art would appreciate that the 15-mers used included shorter de-epitoped high molecular weight glutenin peptide sequences (mutated repeating antigenic units), as described throughout. For example, Table 2 provides a listing of 15-mers and the shorter mutated repeating antigenic units present therein.
Briefly, competition assays using different concentrations of wild-type (WT) and modified glutenin peptides were conducted by diluting the peptides in NP40 buffer, and incubation for 2-4 days with purified MHC II and a radiolabeled known MHC binding peptide (peptide probe). MHC II molecules were purified by affinity chromatography, and peptides were radiolabeled using the chloramine T method. After an incubation period, the bound and unbound radiolabeled species were separated, and their relative amounts were determined by either size-exclusion gel-filtration chromatography or monoclonal antibody capture of MHC. The percent of bound radioactivity was then determined.

[6] = target: HLA-DQ2.5; assay: MHC II competition binding assay (purified MHC II, radiolabeled probe peptide as competitor)
[7] = target: HLA-DQ8; assay: as above
[8] = target: HLA-DQ2.2; assay: as above
[9] = target: HLA-DQ7.5; assay: as above
[10] = Table 3, 15-mer peptides, >40000 signifies binding is undetectable by assay

## C[C@@H](O)[C@H](NC(=O)[C@@H]1CCCN1C(=O)[C@H](Cc1ccc(O)cc1)NC(=O)[C@H](Cc1ccc(O)cc1)NC(=O)CNC(=O)[C@H](CCCCN)NC(=O)[C@H](CCC(N)=O)NC(=O)CNC(=O)[C@@H](N)CCC(N)=O)C(=O)N[C@@H](CO)C(=O)N1CCC[C@H]1C(=O)N[C@@H](Cc1c[nH]cn1)C(=O)N[C@@H](CCC(N)=O)C(=O)N[C@@H](CO)C(=O)NCC(=O)O [SEQ ID NO: 143] (H-QGQKGYYPTSPHQSG-OH; N-terminus assumed)
[1]
  IC50: > 40 µM
[2]
  IC50: 34.4 µM
[3]
  T-cell activation (IFN-γ levels by ELISA): abolishment of T-cell activation

## C[C@@H](O)[C@H](NC(=O)[C@@H]1CCCN1C(=O)[C@H](CC(=O)O)NC(=O)[C@H](Cc1ccc(O)cc1)NC(=O)CNC(=O)[C@H](CO)NC(=O)[C@H](CCC(N)=O)NC(=O)CNC(=O)[C@@H](N)CCC(N)=O)C(=O)N[C@@H](CO)C(=O)N1CCC[C@H]1C(=O)N[C@H](C(=O)N[C@@H](CCC(N)=O)C(=O)N[C@@H](CO)C(=O)NCC(=O)O)[C@@H](C)O [P1d] (H-QGQSGYDPTSPTQSG-OH)
[1]; [10]
  IC50: > 40 µM
[2]; [10]
  IC50: > 40 µM
[4]; [10]
  IC50: > 40 µM
[5]; [10]
  IC50: > 40 µM

## C[C@@H](O)[C@H](NC(=O)[C@H](CO)NC(=O)[C@@H](NC(=O)[C@@H]1CCCN1C(=O)[C@H](Cc1ccc(O)cc1)NC(=O)[C@H](Cc1c[nH]cn1)NC(=O)[C@H](Cc1c[nH]c2ccccc12)NC(=O)[C@H](CCC(=O)O)NC(=O)[C@H](CCC(N)=O)NC(=O)CNC(=O)[C@@H](N)CCC(N)=O)[C@@H](C)O)C(=O)N[C@@H](CCC(=O)O)C(=O)N[C@@H](CCC(N)=O)C(=O)N[C@@H](CO)C(=O)NCC(=O)O [P1h] (H-QGQEWHYPTSTEQSG-OH)
[1]; [10]
  IC50: > 40 µM
[2]; [10]
  IC50: > 40 µM
[4]; [10]
  IC50: 5.72 µM
[5]; [10]
  IC50: > 40 µM

## C[C@@H](O)[C@H](NC(=O)[C@@H]1CCCN1C(=O)[C@H](Cc1ccc(O)cc1)NC(=O)[C@H](CCCNC(=N)N)NC(=O)CNC(=O)[C@H](CCC(=O)O)NC(=O)[C@H](CCC(N)=O)NC(=O)CNC(=O)[C@@H](N)CCC(N)=O)C(=O)N[C@@H](CO)C(=O)N1CCC[C@H]1C(=O)N[C@@H](CCCCN)C(=O)N[C@@H](CCC(N)=O)C(=O)N[C@@H](CO)C(=O)NCC(=O)O [SEQ ID NO: 146] (H-QGQEGRYPTSPKQSG-OH)
[1]
  IC50: > 40 µM
[2]
  IC50: > 40 µM
[4]
  IC50: > 40 µM
[5]
  IC50: > 40 µM

## C[C@H](NC(=O)[C@@H]1CCCN1C(=O)CNC(=O)[C@H](Cc1c[nH]cn1)NC(=O)CNC(=O)[C@H](CCC(=O)O)NC(=O)[C@H](CCC(N)=O)NC(=O)CNC(=O)[C@@H](N)CCC(N)=O)C(=O)N[C@@H](CO)C(=O)N1CCC[C@H]1C(=O)N[C@@H](CCCCN)C(=O)N[C@@H](CCC(N)=O)C(=O)N[C@@H](CO)C(=O)NCC(=O)O [SEQ ID NO: 174] (H-QGQEGHGPASPKQSG-OH)
[1]
  IC50: > 40 µM
[2]
  IC50: > 40 µM
[4]
  IC50: > 40 µM
[5]
  IC50: 16.4 µM

## CC(C)C[C@H](NC(=O)[C@H](CO)NC(=O)[C@@H](NC(=O)[C@@H]1CCCN1C(=O)[C@H](Cc1ccc(O)cc1)NC(=O)[C@H](Cc1ccc(O)cc1)NC(=O)CNC(=O)[C@H](Cc1c[nH]cn1)NC(=O)[C@H](CCC(N)=O)NC(=O)CNC(=O)[C@@H](N)CCC(N)=O)[C@@H](C)O)C(=O)N[C@@H](Cc1c[nH]cn1)C(=O)N[C@@H](CCC(N)=O)C(=O)N[C@@H](CO)C(=O)NCC(=O)O [P1f] (H-QGQHGYYPTSLHQSG-OH)
[1]; [10]
  IC50: > 40 µM
[2]; [10]
  IC50: > 40 µM
[4]; [10]
  IC50: > 40 µM
[5]; [10]
  IC50: > 40 µM

## C[C@@H](O)[C@H](NC(=O)[C@@H]1CCCN1C(=O)[C@H](CC(=O)O)NC(=O)[C@H](CC(N)=O)NC(=O)CNC(=O)[C@H](CCC(=O)O)NC(=O)[C@H](CCC(N)=O)NC(=O)CNC(=O)[C@@H](N)CCC(N)=O)C(=O)NCC(=O)N1CCC[C@H]1C(=O)N[C@@H](CCC(=O)O)C(=O)N[C@@H](CCC(N)=O)C(=O)N[C@@H](CO)C(=O)NCC(=O)O [P1g] (H-QGQEGNDPTGPEQSG-OH)
[1]; [10]
  IC50: > 40 µM
[2]; [10]
  IC50: > 40 µM
[4]; [10]
  IC50: > 40 µM
[5]; [10]
  IC50: > 40 µM

## QGQEGYYPTSPEQSG-OH [P1b, deamidated HMW glutenin 15-mer peptide … (SEQ ID NO: 50)]
[6]
  IC50: 3.29 µM
[7]
  IC50: 3.75 µM

## QGQEWHYPTSTEQSG-OH [P1h, modified 15-mer peptide … (SEQ ID NO: 56)]
[8]
  IC50: 5.72 µM

## QGAAGYYPTSPRQSG-OH [P1c, modified 15-mer peptide … (SEQ ID NO: 51)]
[9]
  IC50: 19.9 µM

## QGQEGRGLTSPHQSG-OH [modified 15-mer peptide … (SEQ ID NO: 144)]
[9]
  IC50: 39.3 µM

## QGQPRYYPTSPRQSG-OH [P1e, modified 15-mer peptide … (SEQ ID NO: 53)]
[6]
  IC50: 33.2 µM
[9]
  IC50: 19.4 µM
[7]
  IC50: 32.5 µM

## QGQEPYGPSSPEQSG-OH [modified 15-mer peptide … (SEQ ID NO: 176)]
[9]
  IC50: 28.6 µM

## QGQEGHGPASPKQSG-OH [modified 15-mer peptide … (SEQ ID NO: 174)]
[9]
  IC50: 16.4 µM

## QGQQGYYPTSPQQSG-OH [P1a, native HMW glutenin 15-mer peptide … (SEQ ID NO: 49)]
[6]
  IC50: 29.8 µM
[7]
  IC50: 14.2 µM

From patent US20230416314A1, “MODIFIED HIGH MOLECULAR WEIGHT GLUTENIN SUBUNIT AND USES THEREOF” (Ukko Inc., priority 2020, published 2023)
